From US11458189B2, “Cytoprotective drugs” (BALMES TRANSPLANTATION, priority 2017, dated 2022)
Starred links: 1 amine or outer side, 2 acyl side, 3 side chain; linkers in the order of their positions; H or OH if unused. Positions of bridges follow the written chain, without caps; N, C: chain ends. Non-standard residues stand in square brackets, D forms with d. Residues, ends and D or L forms follow the SMILES beside them. ξ: configuration not given here. *: point of attachment. hTyr(3S-OH,4S-OH,3'-OSO3H) = N[C@H](C(=O)O)[C@H](O)[C@@H](O)c1ccc(O)c(OS(=O)(=O)O)c1; pTerphenylCO(4''-OnC5H11) = CCCCCOc1ccc(-c2ccc(-c3ccc(C(=O)*)cc3)cc2)cc1; Orn(4R-OH,5R-OH) = O=C([C@H](C[C@@H](O)[C@@H](O)N[*:3])N[*:1])[*:2]; hTyr(3S-OH,4S-OH) = N[C@H](C(=O)O)[C@H](O)[C@@H](O)c1ccc(O)cc1; Pro(3S-OH,4S-Me) = C[C@H]1CN[C@H](C(=O)O)[C@H]1O; X1 = CCCCCOc1ccc(-c2cc(-c3ccc(C(=O)*)cc3)no2)cc1; Gln(3R-OH) = NC(=O)C[C@@H](O)[C@H](N)C(=O)O; ξPro(4R-OH) = O=C(O)C1C[C@@H](O)CN1; Hyp = O=C(O)[C@@H]1C[C@@H](O)CN1

System: Sprague Dawley rats
Test: Survival in acute renal failure model (unilateral renal ischemia-reperfusion with contralateral nephrectomy)
Format: in vivo, rat
Conditions: up to 7 days after reperfusion, control group 29%
Description: The protocol is similar to the one described by Narayan P et al, Am J Physiol Renal Physiol, 311(2):F352-61, 2016 and was approved by an ethics committee. In summary, general anesthesia is induced in male Sprague Dawley rats (250-300 g) using sodium pentobarbital (60 mg/kg, ip) instead of ketamine/xylazine in the protocol described by Narayan P et al, Am J Physiol Renal Physiol, 311 (2): F352-61, 2016. A skin incision is made on the dorsal surface and the left kidney is exposed by incisions on the flank. The left renal pedicle is then isolated and clamped for 60 minutes using atraumatic vascular clamps. The kidneys are replaced in the abdominal cavity to maintain temperature and the incision is covered with gauze soaked in 0.9% saline. After the ischemia time (60 minutes), the clamps are released to begin reperfusion. Reperfusion is monitored (kidney color change) for 1 to 2 minutes and physiological saline (1 mL) is administered to prevent dehydration. Next, a right kidney nephrectomy is performed and the incisions are closed with sutures. The animals are kept at approximately 37° C. using a thermoregulated system during the operation. Buprenorphine (0.2 mg/kg sc) is administered before the animals are returned to their cages and once a day until 4 days after reperfusion. […]
The compounds Micafungin (0.25 mg/kg), Anidulafungin (0.35 mg/kg) or the combination of the compounds Micafungin (0.25 mg/kg) and Allopurinol (3 mg/kg) are administered solubilized in physiological saline as a single intravenous injection into the tail vein 60 (±15) minutes before the onset of ischemia. The volume of administration of the compounds is determined on the basis of the body weight (2 mL/kg) of each animal. […]
For each experiment the curve of the number of surviving animals versus the number of days post-ischemia-reperfusion (Kaplan-Meier curve) is shown. The x-axis is graduated from the first day =0 to the seventh day =6 The y-axis is graduated from 0% to 100% of the initial population of the analyzed group. […]

| SMILES | Surviving animals at end of Kaplan-Meier curve (% of initial population of the group) (Micafungin 0.25 mg/kg single iv injection 60 min before ischemia) | Surviving animals at end of Kaplan-Meier curve (% of initial population of the group) (Anidulafungin 0.35 mg/kg single iv injection 60 min before ischemia) |
| --- | --- | --- |
| CCCCCOc1ccc(-c2cc(-c3ccc(C(=O)N[C@H]4C[C@@H](O)[C@@H](O)NC(=O)[C@@H]5[C@@H](O)[C@@H](C)CN5C(=O)[C@H]([C@H](O)CC(N)=O)NC(=O)[C@H]([C@H](O)[C@@H](O)c5ccc(O)c(OS(=O)(=O)O)c5)NC(=O)[C@@H]5C[C@@H](O)CN5C(=O)[C@H]([C@@H](C)O)NC4=O)cc3)no2)cc1 [Micafungin, {5-[(1S,2S)-2-[(3S,6S,9S,11R,15S,18S,20R,21R,24S,25S,26S)-3-[(1R)-2-carbamoyl-1-hydroxyethyl]-11,20,21,25-tetrahydroxy-15-[(1R)-1-hydroxyethyl]-26-methyl-2,5,8,14,17,23-hexaoxo-18-[(4-{5-[4-(pentyloxy)phenyl]-1,2-oxazol-3-yl}benzene)amido]-1,4,7,13,16,22-hexaazatricyclo[22.3.0.0]heptacosan-6-yl]-1,2-dihydroxyethyl]-2-hydroxyphenyl}oxidanesulfonic acid] (X1-[Orn(4R-OH,5R-OH)]T[Hyp][hTyr(3S-OH,4S-OH,3'-OSO3H)][Gln(3R-OH)][Pro(3S-OH,4S-Me)]; lactam 1-C) | 67% | – |
| CCCCCOc1ccc(-c2ccc(-c3ccc(C(=O)N[C@H]4C[C@@H](O)[C@@H](O)NC(=O)[C@@H]5[C@@H](O)[C@@H](C)CN5C(=O)[C@H]([C@@H](C)O)NC(=O)[C@H]([C@H](O)[C@@H](O)c5ccc(O)cc5)NC(=O)C5C[C@@H](O)CN5C(=O)[C@H]([C@@H](C)O)NC4=O)cc3)cc2)cc1 (stereo partly drawn) [Anidulafungin] ({pTerphenylCO(4''-OnC5H11)}-[Orn(4R-OH,5R-OH)]T[ξPro(4R-OH)][hTyr(3S-OH,4S-OH)]T[Pro(3S-OH,4S-Me)]; lactam 1-C) | – | 75% |
